Data: PubChem BioAssay (NCI)
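Five concentrations, 48 hours, 96-well plates. GI50: concentration for 50% inhibition of growth. TGI marks complete inhibition of growth.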

Legend:
Assay in all cases: inhibition of tumour cell growth, NCI panel, 48 h
[1] = test system: 786-0 renal
[2] = test system: A498 renal
[3] = test system: A549 NSCLC
[4] = test system: ACHN renal
[5] = test system: BT-549 breast
[6] = test system: CAKI-1 renal
[7] = test system: CCRF-CEM leukemia
[8] = test system: COLO 205 colon
[9] = test system: DU-145 prostate
[10] = test system: EKVX NSCLC
[11] = test system: HCC-2998 colon
[12] = test system: HCT-116 colon
[13] = test system: HCT-15 colon
[14] = test system: HL-60(TB) leukemia
[15] = test system: HOP-62 NSCLC
[16] = test system: HOP-92 NSCLC
[17] = test system: HS 578T breast
[18] = test system: HT29 colon
[19] = test system: IGROV1 ovarian
[20] = test system: K-562 leukemia
[21] = test system: KM12 colon
[22] = test system: LOX IMVI melanoma
[23] = test system: M14 melanoma
[24] = test system: MALME-3M melanoma
[25] = test system: MCF7 breast
[26] = test system: MDA-MB-231 breast
[27] = test system: MDA-MB-435
[28] = test system: MOLT-4 leukemia
[29] = test system: NCI-H226 lung
[30] = test system: NCI-H460 lung
[31] = test system: NCI-H522 lung
[32] = test system: NCI/ADR-RES ovarian
[33] = test system: OVCAR-3 ovarian
[34] = test system: OVCAR-4 ovarian
[35] = test system: OVCAR-5 ovarian
[36] = test system: OVCAR-8 ovarian
[37] = test system: PC-3 prostate
[38] = test system: RPMI-8226 leukemia
[39] = test system: RXF 393 renal
[40] = test system: SF-268 CNS
[41] = test system: SF-295 CNS
[42] = test system: SF-539 CNS
[43] = test system: SK-MEL-2 melanoma
[44] = test system: SK-MEL-28 melanoma
[45] = test system: SK-MEL-5 melanoma
[46] = test system: SK-OV-3 ovarian
[47] = test system: SN12C renal
[48] = test system: SNB-19 CNS
[49] = test system: SNB-75 CNS
[50] = test system: SR leukemia
[51] = test system: SW-620 colon
[52] = test system: T-47D breast
[53] = test system: TK-10 renal
[54] = test system: U251 CNS
[55] = test system: UACC-257 melanoma
[56] = test system: UACC-62 melanoma
[57] = test system: UO-31 renal

COc1cc(/C=C/C(=O)c2c(C)n([O-])c3ccccc3[n+]2=O)cc(OC)c1OC
GI50 [1]: 6.94 µM | TGI [1]: 20.1 µM | GI50 [2]: 3.97 µM | TGI [2]: 17.8 µM | GI50 [3]: 8.69 µM | TGI [3]: 21.6 µM | GI50 [4]: 10.8 µM | TGI [4]: 22.7 µM | GI50 [5]: 3.18 µM | TGI [5]: 13.5 µM | GI50 [6]: 7.61 µM | TGI [6]: 20.7 µM | GI50 [7]: 3.66 µM | TGI [7]: 23.3 µM | GI50 [8]: 9.08 µM | TGI [8]: 24.9 µM | GI50 [9]: 2.17 µM | TGI [9]: 13.5 µM | GI50 [10]: 2.43 µM | TGI [10]: 6.86 µM | GI50 [11]: 8.77 µM | TGI [11]: 22.3 µM | GI50 [12]: 2.56 µM | TGI [12]: 13.8 µM | GI50 [13]: 4 µM | TGI [13]: 15.6 µM | GI50 [14]: 5.24 µM | TGI [14]: > 100 µM | GI50 [15]: 12.4 µM | TGI [15]: 24.9 µM | GI50 [16]: 3.47 µM | TGI [16]: 15.7 µM | GI50 [17]: 3.51 µM | TGI [17]: 21 µM | GI50 [18]: 10.7 µM | TGI [18]: 22.9 µM | GI50 [19]: 3.99 µM | TGI [19]: 15.6 µM | GI50 [20]: 5.88 µM | TGI [20]: > 100 µM | GI50 [21]: 10.7 µM | TGI [21]: 24.7 µM | GI50 [22]: 5.25 µM | TGI [22]: 17.4 µM | GI50 [23]: 5.28 µM | TGI [23]: 18.8 µM | GI50 [24]: 11.4 µM | TGI [24]: 26.7 µM | GI50 [25]: 3.18 µM | TGI [25]: 13.4 µM | GI50 [26]: 9.57 µM | TGI [26]: 22.4 µM | GI50 [27]: 5.4 µM | TGI [27]: 22.5 µM | GI50 [28]: 3.38 µM | TGI [28]: 40.7 µM | GI50 [29]: 15.2 µM | TGI [29]: 34 µM | GI50 [30]: 3.63 µM | TGI [30]: 13.1 µM | GI50 [31]: 8.73 µM | TGI [31]: 24 µM | GI50 [32]: 4.02 µM | TGI [32]: 20 µM | GI50 [33]: 5.17 µM | TGI [33]: 18.6 µM | GI50 [34]: 10.8 µM | TGI [34]: > 100 µM | GI50 [35]: 11.6 µM | TGI [35]: 24.6 µM | GI50 [36]: 4.43 µM | TGI [36]: 17.7 µM | GI50 [37]: 4.45 µM | TGI [37]: 19.3 µM | GI50 [38]: 3.58 µM | TGI [38]: 22.8 µM | GI50 [39]: 5.85 µM | TGI [39]: 20.4 µM | GI50 [40]: 5.65 µM | TGI [40]: 25.7 µM | GI50 [41]: 4.34 µM | TGI [41]: 14.8 µM | GI50 [42]: 11.5 µM | TGI [42]: 23.7 µM | GI50 [43]: 4.63 µM | TGI [43]: 17.2 µM | GI50 [44]: 11.2 µM | TGI [44]: 28.9 µM | GI50 [45]: 3.62 µM | TGI [45]: 13.4 µM | GI50 [46]: 11 µM | TGI [46]: 25.5 µM | GI50 [47]: 5.82 µM | TGI [47]: 20.3 µM | GI50 [48]: 10.5 µM | TGI [48]: 23.3 µM | GI50 [49]: 12.5 µM | TGI [49]: 30.8 µM | GI50 [50]: 2.75 µM | TGI [50]: 14.9 µM | GI50 [51]: 4.99 µM | TGI [51]: 17.1 µM | GI50 [52]: 8.71 µM | TGI [52]: 28.7 µM | GI50 [53]: 11.3 µM | TGI [53]: 24 µM | GI50 [54]: 5.14 µM | TGI [54]: 17.2 µM | GI50 [55]: 6.48 µM | TGI [55]: 20.5 µM | GI50 [56]: 11.3 µM | TGI [56]: 23.3 µM | GI50 [57]: 4.5 µM | TGI [57]: 17.5 µM
